Holding throughout (assay type): cell-based
The test system of test [1] is primary human mesenchymal stem cells (hMSCs). The test is described as follows: Chondrogenesis induction screen in primary human mesenchymal stem cells. Conditions: 6 days, chondrogenic nodules, dose range 10-2700 nM. As to the method:
The above synthesized compounds were screened using primary human mesenchymal stem cells (hMSCs) to determine their ability to induce chondrogenesis (process by which cartilage is developed).
Primary human mesenchymal stem cells (hMSCs) were purchased from Lonza (Walkersville, Md.) and expanded in Mesenchymal Stem Cell Growth Media (Lonza). Cells between passage 3 and 6 were used for the experiments.
Each compound was dissolved in DMSO as a 10 mM stock and used to prepare compound source plates. Serial dilution (1:3, 6-point dose-response curves from 2700 nM to 10 nM) and compound transfer was performed using the ECHO 550 (Labcyte, Sunnyvale, Calif.) into 96-well clear bottom assay plates (Greiner Bio-One) with appropriate DMSO backfill for a final DMSO concentration of 0.03%. hMSCs were plated at 20,000 cells/well in 250 μL/well Incomplete Chondrogenic Induction Medium (Lonza; DMEM, dexamethasone, ascorbate, insulin-transferrin-selenium [ITS supplement], gentamycin-amphotericin [GA-1000], sodium pyruvate, proline and L-glutamine). TGF-β3 (10 ng/mL) was used as a positive control for differentiation while negative control wells were treated with 75 nL DMSO for normalization and calculating EC50 values. Cells were incubated at 37° C. and 5% CO2 for 6 days. To image chondrogenic nodules, the cells were fixed using 4% formaldehyde (Electron Microscopy Sciences), and stained with 2 μg/mL Rhodamine B (Sigma-Aldrich) and 20 μM Nile Red (Sigma-Aldrich) [Johnson K., et.al, A Stem Cell—Based Approach to Cartilage Repair, Science, (2012), 336(6082), 717-721]. The nodules imaged (4 images per well at 4× magnification) by excitation at 531 nm and emission at 625 nm and quantified using the CellInsight CX5 (Thermo Scientific). Number of nodules in each well was normalized to the average of 3 DMSO treated wells on the same plate using Excel (Microsoft Inc.). The normalized averages (fold change over DMSO) of 3 replicate wells for each compound concentration were calculated. Due to solubility limitations of some of the compounds, curve fitting was incomplete leading to inaccurate EC50 determinations.
Using TGF-β3 as a positive control, the concentration of test compounds required to induce equivalent levels of chondrogenesis is reported. In addition, the maximum activity of each compound and the respective dose that each compound reached maximum chondrogenesis activity is reported.

Test [2] deals with Wnt activity (SW480 colon carcinoma cells stably expressing the Sp5-Luc reporter gene). The test is described as follows: Sp5-Luc reporter gene screening assay for Wnt activity in SW480 cells. The settings on record: Homo sapiens, 42 h incubation, luminescence. In short, it runs like this:
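SW480 cells stably carrying an Sp5 promoter (eight TCF/LEF sites)-luciferase reporter were plated overnight in 10% FCS medium. BrightGlo luminescence was normalised to DMSO wells, and IC50 was obtained by four-parameter fit.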
For orientation: Reporter assays use an easily measured gene product as a stand-in for the process of interest.

Test [3] relates to primary human fibroblasts derived from IPF patients (LL29 cells). Kind of test: Inhibition of fibrosis (αSMA) in TGF-β1 treated primary human fibroblasts from IPF patients. The settings on record: Fibroblast, 96 h, TGF-β1 20 ng/mL, 4 days, % αSMA positive cells. In short, it runs like this:
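IPF patient-derived LL29 lung fibroblasts in 1% FBS were treated with compound (11 points, 10 μM to 1.87 nM, 0.1% DMSO) and then 20 ng/mL TGF-β1 for 4 days at 37° C. Fraction of SYTOX-negative cells positive for αSMA was quantified by immunofluorescence imaging and normalized to TGF-β1 controls. EC50 came from non-linear regression over triplicate wells.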

The source of these data is patent US10280166B2, “2-(1H-indazol-3-yl)-3H-imidazo[4,5-B]pyridine and therapeutic uses thereof” (Samumed, LLC, priority 2014, dated 2019).

A value given as a limit tells only on which side of the number the result lay.

On to `CC(C)CC(=O)Nc1cncc(-c2ccc3[nH]nc(-c4nc5c(-c6cccc(F)c6)ccnc5[nH]4)c3c2)c1` [Compound 2, N-(5-(3-(7-(3-Fluorophenyl)-3H-imidazo[4,5-b]pyridin-2-yl)-1H-indazol-5-yl)pyridin-3-yl)-3-methylbutanamide], for which, in test [1], the “Conc (nM) of Max. activity” value was found to be 30 nM. In test [2], this molecule gave an IC50 of 2 nM. This molecule displayed an EC50 in test [3] of 0.041 nM.

`CN(C)c1cncc(-c2ccc3[nH]nc(-c4nc5c(-c6cccc(F)c6)ccnc5[nH]4)c3c2)c1` [Compound 7, 5-(3-(7-(3-Fluorophenyl)-3H-imidazo[4,5-b]pyridin-2-yl)-1H-indazol-5-yl)-N,N-dimethylpyridin-3-amine]: the “Conc (nM) of Max. activity” value in test [1] stood at 100 nM. Besides, the IC50 in test [2] was less than 1 nM. Besides, the midpoint of the response in test [3], the EC50, lay at 0.066 nM.

Turning to `Fc1cccc(-c2ccnc3[nH]c(-c4n[nH]c5ccc(-c6cncc(CN7CCC(F)(F)C7)c6)cc45)nc23)c1` [Compound 25, 2-(5-(5-((3,3-Difluoropyrrolidin-1-yl)methyl)pyridin-3-yl)-1H-indazol-3-yl)-7-(3-fluorophenyl)-3H-imidazo[4,5-b]pyridine], the “Conc (nM) of Max. activity” value in test [1] came out at 30 nM. The half-maximal inhibitory concentration (IC50) in test [2] was less than 1 nM. This molecule registered an EC50 in test [3] of 0.099 nM.

Regarding `Nc1cncc(-c2ccc3[nH]nc(-c4nc5c(-c6ccccc6F)ccnc5[nH]4)c3c2)c1` [Compound 55, 5-(3-(7-(2-Fluorophenyl)-3H-imidazo[4,5-b]pyridin-2-yl)-1H-indazol-5-yl)pyridin-3-amine], the “Conc (nM) of Max. activity” value in test [1] is on record as 30 nM. Further, 1.8 nM corresponded to half-maximal inhibition in test [2] (IC50). Also, the response in test [3] was half-maximal at 0.017 nM (EC50).

As for `c1cncc(-c2ccc3[nH]nc(-c4nc5c(-c6cccnc6)ccnc5[nH]4)c3c2)c1` [Compound 82, 7-(Pyridin-3-yl)-2-(5-(pyridin-3-yl)-1H-indazol-3-yl)-3H-imidazo[4,5-b]pyridine], the “Conc (nM) of Max. activity” value in test [1] turned out to be 10 nM. In test [2], this molecule displayed an IC50 of 3.5 nM. This molecule came in with an EC50 in test [3] of 0.303 nM.

As for `Cc1ccncc1-c1ccc2[nH]nc(-c3nc4c(-c5ccncc5)ccnc4[nH]3)c2c1` [Compound 109, 2-(5-(4-Methylpyridin-3-yl)-1H-indazol-3-yl)-7-(pyridin-4-yl)-3H-imidazo[4,5-b]pyridine], in test [1], the “Conc (nM) of Max. activity” value came out at 30 nM. In test [2], this molecule showed a half-maximal inhibitory concentration (IC50) of 13.7 nM. In addition, in test [3], the EC50 amounted to 0.781 nM.

Take `CCCCC(=O)Nc1cncc(-c2ccc3[nH]nc(-c4nc5c(-c6ccccn6)ccnc5[nH]4)c3c2)c1` [Compound 148, N-(5-(3-(7-(Pyridin-2-yl)-3H-imidazo[4,5-b]pyridin-2-yl)-1H-indazol-5-yl)pyridin-3-yl)pentanamide]: the “Conc (nM) of Max. activity” value in test [1] turned out to be 100 nM. In test [2], this molecule yielded an IC50 of 8.1 nM. Also, in test [3], the half-maximal effective concentration (EC50) stood at 0.085 nM.

With `Cc1cn(-c2ccnc3[nH]c(-c4n[nH]c5ccc(-c6cncc(NC(=O)CC(C)C)c6)cc45)nc23)cn1` [Compound 184, 3-Methyl-N-(5-(3-(7-(4-methyl-1H-imidazol-1-yl)-3H-imidazo[4,5-b]pyridin-2-yl)-1H-indazol-5-yl)pyridin-3-yl)butanamide], the “Conc (nM) of Max. activity” value in test [1] worked out at 300 nM. The IC50 in test [2] came out at 2.3 nM. Also, the EC50 in test [3] was 0.142 nM.

Regarding `CCCC(=O)Nc1cncc(-c2ccc3[nH]nc(-c4nc5c(-c6ccsc6)ccnc5[nH]4)c3c2)c1` [Compound 277, N-(5-(3-(7-(Thiophen-3-yl)-3H-imidazo[4,5-b]pyridin-2-yl)-1H-indazol-5-yl)pyridin-3-yl)butyramide], in test [1], the “Conc (nM) of Max. activity” value was 30 nM. Further, in test [2], the IC50 was 1 nM. A half-maximal effect in test [3] (EC50) was put at 0.016 nM.

Consider `CC(C)Nc1cncc(-c2ccc3[nH]nc(-c4nc5c(-c6ccoc6)ccnc5[nH]4)c3c2)c1` [Compound 298, 5-(3-(7-(Furan-3-yl)-3H-imidazo[4,5-b]pyridin-2-yl)-1H-indazol-5-yl)-N-isopropylpyridin-3-amine], for which, in test [1], the “Conc (nM) of Max. activity” value was 30 nM. Moreover, the IC50 in test [2] worked out at 5 nM. For the same molecule, in test [3], the response was half-maximal at 0.102 nM (EC50).

With `CC(C)(C)C(=O)Nc1cncc(-c2ccc3[nH]nc(-c4nc5c(-c6ccc(F)s6)ccnc5[nH]4)c3c2)c1` [Compound 346, N-(5-(3-(7-(5-Fluorothiophen-2-yl)-3H-imidazo[4,5-b]pyridin-2-yl)-1H-indazol-5-yl)pyridin-3-yl)pivalamide], the “Conc (nM) of Max. activity” value in test [1] is 300 nM. In test [2], this molecule gave a half-inhibitory concentration (IC50) of 0.4 nM. In test [3], this molecule returned an EC50 of 0.009 nM.

For `Cc1ccc(-c2ccnc3[nH]c(-c4n[nH]c5ccc(-c6cncc(NC(=O)C(C)C)c6)cc45)nc23)s1` [Compound 373, N-(5-(3-(7-(5-Methylthiophen-2-yl)-3H-imidazo[4,5-b]pyridin-2-yl)-1H-indazol-5-yl)pyridin-3-yl)isobutyramide], in test [1], the “Conc (nM) of Max. activity” value is 30 nM. Further, the concentration for half-maximal inhibition (IC50) in test [2] is 6.4 nM. The molecule further returned an EC50 in test [3] of 0.045 nM.

In the case of `CCCC(=O)Nc1cncc(-c2ccc3[nH]nc(-c4nc5c(-c6cc(F)cc(CNS(C)(=O)=O)c6)ccnc5[nH]4)c3c2)c1` [Compound 433, N-(5-(3-(7-(3-Fluoro-5-(methylsulfonamidomethyl)phenyl)-3H-imidazo[4,5-b]pyridin-2-yl)-1H-indazol-5-yl)pyridin-3-yl)butyramide], in test [1], the “Conc (nM) of Max. activity” value is given as 2700 nM. In test [2], this molecule yielded an IC50 of 3 nM. The molecule also returned a 50% effective concentration (EC50) in test [3] greater than 10 nM.

In the case of `CCCCC(=O)Nc1cncc(-c2ccc3[nH]nc(-c4nc5c(-c6cc(F)cc(NCCN(C)C)c6)ccnc5[nH]4)c3c2)c1` [Compound 460, N-(5-(3-(7-(3-((2-(Dimethylamino)ethyl)amino)-5-fluorophenyl)-3H-imidazo[4,5-b]pyridin-2-yl)-1H-indazol-5-yl)pyridin-3-yl)pentanamide], the “Conc (nM) of Max. activity” value in test [1] was 30 nM. This molecule had an IC50 in test [2] of 11.6 nM. The molecule also returned an EC50 in test [3] of 0.111 nM.

The molecule `COc1cncc(-c2ccc3[nH]nc(-c4nc5c(-c6cccc(F)c6)ccnc5[nH]4)c3c2)c1` [Compound 1884, 7-(3-Fluorophenyl)-2-(5-(5-methoxypyridin-3-yl)-1H-indazol-3-yl)-3H-imidazo[4,5-b]pyridine] came in with an IC50 in test [2] greater than 10000 nM. In test [3], this molecule had an EC50 of 9.99 nM.

Regarding `O=C(CC1CCCCC1)Nc1cncc(-c2ccc3[nH]nc(-c4nc5c(-c6cccc(F)c6)ccnc5[nH]4)c3c2)c1` [Compound 1887, 2-Cyclohexyl-N-(5-(3-(7-(3-fluorophenyl)-3H-imidazo[4,5-b]pyridin-2-yl)-1H-indazol-5-yl)pyridin-3-yl)acetamide], the IC50 in test [2] is greater than 10000 nM. The same molecule came in with a concentration giving a half-maximal response (EC50) in test [3] of 9.99 nM.

In test [2], `Fc1cccc(-c2ccnc3[nH]c(-c4n[nH]c5ccc(-c6ccncc6)cc45)nc23)c1` [Compound 1888, 7-(3-Fluorophenyl)-2-(5-(pyridin-4-yl)-1H-indazol-3-yl)-3H-imidazo[4,5-b]pyridine] returned an IC50 greater than 10000 nM. Moreover, in test [3], it took 9.99 nM to reach a half-maximal effect (EC50).

In turn, `Fc1cccc(-c2ccnc3[nH]c(-c4n[nH]c5ccc(-c6ccccn6)cc45)nc23)c1` [Compound 1889, 7-(3-Fluorophenyl)-2-(5-(pyridin-2-yl)-1H-indazol-3-yl)-3H-imidazo[4,5-b]pyridine] had a half-maximal inhibitory concentration (IC50) in test [2] greater than 1000 nM. The EC50 in test [3] turned out to be 0.018 nM.

On to `Fc1cccc(-c2ccnc3[nH]c(-c4n[nH]c5ccc(-c6cnccn6)cc45)nc23)c1` [Compound 1890, 7-(3-Fluorophenyl)-2-(5-(pyrazin-2-yl)-1H-indazol-3-yl)-3H-imidazo[4,5-b]pyridine], for which the IC50 in test [2] turned out to be 39 nM. This molecule yielded an EC50 in test [3] of 0.167 nM.

In the case of `CN(C)CC(=O)Nc1cncc(-c2ccc3[nH]nc(-c4nc5c(-c6cccc(F)c6)ccnc5[nH]4)c3c2)c1` [Compound 2373, 2-(Dimethylamino)-N-(5-(3-(7-(3-fluorophenyl)-3H-imidazo[4,5-b]pyridin-2-yl)-1H-indazol-5-yl)pyridin-3-yl)acetamide], the midpoint of inhibition in test [2], the IC50, lay at 91 nM. For the same molecule, in test [3], the EC50 amounted to 0.233 nM.

As usually defined, the IC50 is the concentration at which inhibition is half-maximal. High values mean weaker potency, low ones greater potency. For orientation: EC50 means the concentration at which the effect is half-maximal. Low readings indicate an effect from little substance, high ones a need for much substance.
